Assay: Flowability (Flow Function, FF) of API particles
Assay type: physicochemical

Row | Flowability (Flow Function; FF) of uncoated particles | Structure (SMILES)
1 | 4.23 | CC(C)Cc1ccc(C(C)C(=O)O)cc1 (stereo not drawn) [ibuprofen]
2 | 2.61 | CC(=O)Nc1ccc(O)cc1 [Acetaminophen]
3 | 10 | Cn1c(=O)c2[nH]cnc2n(C)c1=O [theophylline]

From patent US12064522B2, “Low temperature process for preparing silicon oxide coated pharmaceuticals” (priority 2020, dated 2024)
